Data taken from patent US20210290598A1, “MEDICAMENT USEFUL FOR CARDIOVASCULAR DISEASE” (NATIONAL UNIVERSITY CORPORATION OKAYAMA UNIVERSITY, priority 2018, published 2021).

What was measured:
Format in all cases: in vivo, rat
[1] = test system: phosphorylated endothelial nitric oxide synthase (phospho-eNOS); test: Expression level of phospho-eNOS in isolated aortas by Western blotting; settings: 12 weeks dosing
Protocol: (§1) Drug efficacy was evaluated on Dahl salt-sensitive rats (Dahl-Iwai S, 7 weeks old, Japan SLC, Inc.) fed on a 8% salt-containing HFD (High Fat Diet: 29.4% fat content, CLEA Japan, Inc.) (4 groups in total: (1) control group, (2) pemafibrate (0.5 mg/kg/day) single-agent administration group, (3) pitavastatin (0.3 mg/kg/day) single-agent administration group, and (4) pemafibrate (0.5 mg/kg/day)+pitavastatin (0.3 mg/kg/day) combined administration group, with 10 animals for each group). Twelve weeks after the start of administration, the animals were euthanized after measuring their blood pressure, and the weight of the isolated hearts and the endothelial function of the isolated thoracic aortas were measured with a Magnus apparatus. The measurement with the Magnus apparatus was performed according to the standard method. […] Then, acetylcholine (10^−9 to 10^−5 M) was added cumulatively, and the relaxation response was measured. Finally, […] was obtained with 100 μM papaverine, and the relaxation rate was evaluated. When measuring with the Magnus apparatus, the blood vessels of normal rats were also evaluated in addition to the four groups, and were used as a control group. In addition, the expression level of phosphorylated endothelial nitric oxide synthase (phospho-eNOS) was evaluated by Western blotting according to the standard method, using the isolated aortas.

[2] = test system: isolated thoracic aorta of Dahl salt-sensitive rats; test: Endothelial function of isolated thoracic aorta, Magnus apparatus, acetylcholine relaxation response; settings: 12 weeks dosing; aorta ring constricted with 0.3 μM phenylephrine, cumulative acetylcholine; mixed effect model, Bonferroni
Protocol: as §1

Dahl salt-sensitive rats [3] = test: Weight of isolated hearts of Dahl salt-sensitive rats on high-salt high-fat diet; settings: for heart weight: 12 weeks after start, mean±standard deviation, pemafibrate 0.5 mg/kg/day, pitavastatin 0.3 mg/kg/day, salt-containing HFD, control 1.74±0.1; for change in heart weight compared with control group: 12 weeks, analysis of variance/Bonferroni
Protocol: (§2) Drug efficacy was evaluated on Dahl salt-sensitive rats (Dahl-Iwai S, 7 weeks old, Japan SLC, Inc.) fed on a 8% salt-containing HFD (High Fat Diet: 29.4% fat content, CLEA Japan, Inc.) (4 groups in total: (1) control group, (2) pemafibrate (0.5 mg/kg/day) single-agent administration group, (3) pitavastatin (0.3 mg/kg/day) single-agent administration group, and (4) pemafibrate (0.5 mg/kg/day)+pitavastatin (0.3 mg/kg/day) combined administration group, with 10 animals for each group). Twelve weeks after the start of administration, the animals were euthanized after measuring their blood pressure, and the weight of the isolated hearts and the endothelial function of the isolated thoracic aortas were measured with a Magnus apparatus. The measurement with the Magnus apparatus was performed according to the standard method. That is, a ring preparation of the isolated thoracic aorta was prepared, suspended in a Magnus tube in Krebs-Henseleit solution, loaded with a tension of 1 g, and constricted with 0.3 μM phenylephrine. Then, acetylcholine (10^−9 to 10^−5 M) was added cumulatively, and the relaxation response was measured. Finally, […] was obtained with 100 μM papaverine, and the relaxation rate was evaluated. When measuring with the Magnus apparatus, the blood vessels of normal rats were also evaluated in addition to the four groups, and were used as a control group. In addition, the expression level of phosphorylated endothelial nitric oxide synthase (phospho-eNOS) was evaluated by Western blotting according to the standard method, using the isolated aortas.

Dahl salt-sensitive rats [4] = test: Blood pressure in Dahl salt-sensitive rats on high-salt high-fat diet; settings: for mean blood pressure: 12 weeks after start, mean±standard deviation, pemafibrate 0.5 mg/kg/day, pitavastatin 0.3 mg/kg/day, salt-containing HFD, control 193.6±6.6; for change in blood pressure compared with control group: 12 weeks, analysis of variance/Bonferroni
Protocol: as §2

CC[C@@H](Oc1cccc(CN(CCCOc2ccc(OC)cc2)c2nc3ccccc3o2)c1)C(=O)O [pemafibrate, (2R)-2-[3-({1,3-benzoxazol-2-yl[3-(4-methoxyphenoxy)propyl]amino}methyl)phenoxy]butanoic acid]
expression level of phospho-eNOS compared to control group [1]: tendency to increase
vasodilatory responsiveness as a whole compared with control group [2]: showed a trend toward improvement in vasodilatory responsiveness
heart weight (Dahl salt-sensitive rats [3]): 1.48 ± 0.1 g
change in heart weight compared with control group (Dahl salt-sensitive rats [3]): significantly lower than that of the control
mean blood pressure (Dahl salt-sensitive rats [4]): 192.6±8.3 mmHg
change in blood pressure compared with control group (Dahl salt-sensitive rats [4]): no change was observed

O=C(O)C[C@H](O)C[C@H](O)/C=C/c1c(C2CC2)nc2ccccc2c1-c1ccc(F)cc1 [pitavastatin]
expression level of phospho-eNOS compared to control group [1]: tendency to increase
vasodilatory responsiveness as a whole compared with control group [2]: showed a trend toward improvement in vasodilatory responsiveness
heart weight (Dahl salt-sensitive rats [3]): 1.76 ± 0.2 g
change in heart weight compared with control group (Dahl salt-sensitive rats [3]): no change compared to the control
mean blood pressure (Dahl salt-sensitive rats [4]): 196.9±8.4 mmHg
change in blood pressure compared with control group (Dahl salt-sensitive rats [4]): no change was observed
